The values that follow come from publication PMC6467921, “Biosynthesis of DHGA12 and its roles in Arabidopsis seedling establishment” (Nature Communications, 2019).

For experiment [1], the target named is T1, GID1c (Arabidopsis thaliana, UniProt Q940G6).
T1 construct: glutathione S-transferase (GST)-tagged GID1c
T1 sequence (Q940G6 2-344): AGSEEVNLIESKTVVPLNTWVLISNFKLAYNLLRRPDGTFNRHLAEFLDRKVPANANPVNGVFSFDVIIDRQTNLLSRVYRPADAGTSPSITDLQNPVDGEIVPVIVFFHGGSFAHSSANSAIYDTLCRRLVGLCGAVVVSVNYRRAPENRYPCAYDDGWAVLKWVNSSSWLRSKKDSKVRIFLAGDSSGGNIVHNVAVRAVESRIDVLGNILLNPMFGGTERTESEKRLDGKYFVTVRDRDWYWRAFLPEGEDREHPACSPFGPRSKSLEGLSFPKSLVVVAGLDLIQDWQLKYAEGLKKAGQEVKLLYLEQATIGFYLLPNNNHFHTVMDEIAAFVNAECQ
Put plainly: microscale thermophoresis (MST), NT-647-labeled GST-GID1c. It is filed as binding.

The target of experiment [2] is T2, GAS2 (Arabidopsis thaliana, UniProt F4INZ9).
T2 construct: gene GIM2; recombinant purified GAS2
T2 sequence (F4INZ9 1-366): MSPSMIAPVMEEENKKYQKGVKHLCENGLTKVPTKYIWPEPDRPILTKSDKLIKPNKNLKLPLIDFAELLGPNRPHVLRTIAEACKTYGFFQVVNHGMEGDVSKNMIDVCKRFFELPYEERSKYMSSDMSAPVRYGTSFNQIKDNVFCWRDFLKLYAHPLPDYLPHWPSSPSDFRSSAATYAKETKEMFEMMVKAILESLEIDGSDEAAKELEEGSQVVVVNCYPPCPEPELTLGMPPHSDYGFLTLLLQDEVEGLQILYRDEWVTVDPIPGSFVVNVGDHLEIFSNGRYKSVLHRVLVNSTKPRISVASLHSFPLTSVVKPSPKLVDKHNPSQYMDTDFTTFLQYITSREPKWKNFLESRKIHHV
Briefly: product of in vitro GAS2 reaction identified by LC-MS, compared with synthetic standard. The experiment is classed as biochemical.

On to `C=C1C[C@]23C[C@H]1CC[C@H]2[C@@]12CC[C@H](O)[C@@](C)(C(=O)O1)[C@H]2[C@@H]3C(=O)O` [GA4], for which, in experiment [1], the Kd (as a rule, the constant that tells how readily two partners part at equilibrium) came to 680 ± 120 nM.

As for `C[C@@]12CCC[C@@](C)(C(=O)O)[C@H]1[C@H](C(=O)O)[C@@]13C[C@@H](CC[C@@H]21)[C@](C)(O)C3` [DHGA12], in experiment [2], the “product of in vitro GAS2 reaction identified by LC-MS, compared with synthetic s” value is on record as “Our data demonstrate that GAS2 exhibits hydration activity using GA12 as a substrate to produce DHGA12”. The molecule also came in with a Kd in experiment [1] of 1450 ± 250 nM.
